Entries after “also recorded” stand apart in the source; their conditions may differ.

Data on one molecule can be found in patent US20080193530A1 (priority 2007, published 2008).

This experiment has as its system glycosylated hemoglobin level (HbA1C). As to the kind of experiment: Clinical study of ranolazine (IV dose, then oral sustained release) vs placebo in patients having coronary disease: HbA1C. Type of experiment: in vivo, human. The text has this:
Baseline is in-hospital visit prior to hospitalization.

Setting [1] is: Diabetes at enrollment, ranolazine group (n = 1098), Month 16.
Setting [2] is: No Diabetes at enrollment, ranolazine group (n = 2170), Final Visit.
Setting [3] is: No Diabetes at enrollment, ranolazine group (n = 2170), Month 4.
The mark [4] stands for this setting: No Diabetes at enrollment, ranolazine group (n = 2170), Month 8.
The mark [5] stands for this setting: No Diabetes at enrollment, ranolazine group (n = 2170), Month 16.

For `COc1ccccc1OCC(O)CN1CCN(CC(=O)Nc2c(C)cccc2C)CC1` (racemic) [Ranolazine, (±)-N-(2,6-dimethylphenyl)-4-[2-hydroxy-3-(2-methoxyphenoxy)-propyl]-1-piperazineacetamide], the “Proportion of patients with HbA1c ≧7% by diabetes at enrollment” value is given as 57% (Diabetes at enrollment, ranolazine group (n = 1098), Baseline); 42% (Diabetes at enrollment, ranolazine group (n = 1098), Final Visit); 41% (Diabetes at enrollment, ranolazine group (n = 1098), Month 4); 44% (Diabetes at enrollment, ranolazine group (n = 1098), Month 8); 48% under setting [1]; 6% (No Diabetes at enrollment, ranolazine group (n = 2170), Baseline). Besides, the “Proportion of patients with HbA1c ≧7% by diabetes at enrollment” value was 6% under setting [2], 5% under setting [3], 6% under setting [4] and 7% under setting [5]. Moreover, the “Number of patients with HbA1c ≧7% by diabetes at enrollment” value runs as follows: under setting [1], 63; under setting [2], 92; under setting [3], 78; under setting [4], 72; under setting [5], 21. Moreover, the “Effect on serum HbA1c levels (FIGS. 1 and 2)” value (all patients treated) is “HbA1c lowering effect on all patients treated; also recorded: significantly lowers serum HbA1C levels”. Also, the “Number of patients with HbA1C ≧7%” value (all patients, ranolazine group (n = 3268), Month 16) was determined as 84. Moreover, the “Effect on HbA1c levels (FIG. 2)” value (diabetic patients treated with ranolazine) is reported as “reduction in the amount of HbA1C levels” and the “Effect on HbA1c levels (FIG. 2)” value (non-diabetic patients treated with ranolazine) is “reduction in the amount of HbA1C levels”.
